Columns and labels:
T-47D = experiment: NCI DTP human tumor cell line screen (SRB); format: cell-based; conditions: Breast Cancer, 10 μM, 48 h
Method: (§1) Representative compounds of the invention, prepared as described in EXAMPLES 1-6, were submitted to the Developmental Therapeutics Program of the United States National Cancer Institute (NCl) to screen for anti-cancer activity. The anti-cancer activities of the six compounds were tested against approximately 60 human tumor cell lines representing leukemia, melanoma, and cancers of the lung, colon, breast, ovary, kidney, prostate, and brain. The following screening methodology was provided by the NCl. […] For experimental screens, cells were inoculated into 96 well microtiter plates in 100 μL at plating densities ranging from 5,000 to 40,000 cells/well depending on the doubling time of individual cell lines. After cell inoculation, the microtiter plates were incubated at 37° C., 5% carbon dioxide, 95% air and 100% relative humidity for 24 hours prior to addition of the compounds. After 24 hours of incubation, two plates of each cell line were fixed in situ with trichloroacetic acid (TCA) to represent a measurement of the cell population for each cell line at the time of compound addition (Tz). The compounds were solubilized in dimethyl sulfoxide at 400-fold the desired final maximum test concentration and stored frozen prior to use. At the time of drug addition, frozen aliquots of the compounds thawed and diluted with complete medium containing 50 μg/ml gentamicin. Aliquots of 100 μl of these different compound dilutions were added to the appropriate microtiter wells already containing 100 μl of medium, resulting in the required final compound concentration of 10 μM. Following compound addition, the plates were incubated for an additional 48 h at 37° C., 5% carbon dioxide, 95% air, and 100% relative humidity. For adherent cells, the assay was terminated by the addition of cold TCA. Cells were fixed in situ by the gentle addition of 50 μl of cold 50% (w/v) TCA (final concentration, 10% TCA) and incubated for 60 minutes at 4° C. The supernatant was discarded, and the plates were washed five times with tap water and air dried. Sulforhodamine B (SRB) solution (100 μl) at 0.4% (w/v) in 1% acetic acid was added to each well, and plates were incubated for 10 minutes at room temperature. After staining, unbound dye was removed by washing five times with 1% acetic acid and the plates were air dried. Bound stain was subsequently solubilized with 10 mM trizma base, and the absorbance was read on an automated plate reader at a wavelength of 515 nm. For suspension cells, the methodology was the same except that the assay was terminated by fixing settled cells at the bottom of the wells by gently adding 50 μl of 80% TCA (final concentration, 16% TCA). Using the three absorbance measurements [time zero, (Tz), control growth, (C), and test growth in the presence of compound (Ti)], the percentage growth was calculated at each of the compound concentrations levels. Percentage growth inhibition was calculated with the following algorithms: [(Ti−Tz)/(C−Tz)]×100 for concentrations for which Ti>/=Tz [(Ti−Tz)/Tz]×100 for concentrations for which Ti<Tz The results of the NCl in vitro anticancer screening with six compounds against various human tumor cell lines are presented below in Tables 2-7. […] The growth percent mean, delta, and range for each compound are given below.

U251 = experiment: NCI DTP human tumor cell line screen (SRB); format: cell-based; conditions: CNS Cancer, 10 μM, 48 h
Method: as §1

CCRF-CEM = experiment: NCI DTP human tumor cell line screen (SRB); format: cell-based; conditions: Leukemia, 10 μM, 48 h
Method: as §1

K-562 = experiment: NCI DTP human tumor cell line screen (SRB); format: cell-based; conditions: Leukemia, 10 μM, 48 h
Method: as §1

UACC-62 = experiment: NCI DTP human tumor cell line screen (SRB); format: cell-based; conditions: Melanoma, 10 μM, 48 h
Method: as §1

MDA-MB-231/ATCC = experiment: NCI DTP human tumor cell line screen (SRB); format: cell-based; conditions: Breast Cancer, 10 μM, 48 h
Method: as §1

HOP-62 = experiment: NCI DTP human tumor cell line screen (SRB); format: cell-based; conditions: Non-Small Cell Lung Cancer, 10 μM, 48 h
Method: as §1

SF-295 = experiment: NCI DTP human tumor cell line screen (SRB); format: cell-based; conditions: CNS Cancer, 10 μM, 48 h
Method: as §1

SR = experiment: NCI DTP human tumor cell line screen (SRB); format: cell-based; conditions: Leukemia, 10 μM, 48 h
Method: as §1

NCI-H460 = experiment: NCI DTP human tumor cell line screen (SRB); format: cell-based; conditions: Non-Small Cell Lung Cancer, 10 μM, 48 h
Method: as §1

ACHN = experiment: NCI DTP human tumor cell line screen (SRB); format: cell-based; conditions: Renal Cancer, 10 μM, 48 h
Method: as §1

SF-539 = experiment: NCI DTP human tumor cell line screen (SRB); format: cell-based; conditions: CNS Cancer, 10 μM, 48 h
Method: as §1

COLO 205 = experiment: NCI DTP human tumor cell line screen (SRB); format: cell-based; conditions: Colon Cancer, 10 μM, 48 h
Method: as §1

HS 578T = experiment: NCI DTP human tumor cell line screen (SRB); format: cell-based; conditions: Breast Cancer, 10 μM, 48 h
Method: as §1

CAKI-1 = experiment: NCI DTP human tumor cell line screen (SRB); format: cell-based; conditions: Renal Cancer, 10 μM, 48 h
Method: as §1

UO-31 = experiment: NCI DTP human tumor cell line screen (SRB); format: cell-based; conditions: Renal Cancer, 10 μM, 48 h
Method: as §1

A498 = experiment: NCI DTP human tumor cell line screen (SRB); format: cell-based; conditions: Renal Cancer, 10 μM, 48 h
Method: as §1

LOX IMVI = experiment: NCI DTP human tumor cell line screen (SRB); format: cell-based; conditions: Melanoma, 10 μM, 48 h
Method: as §1

OVCAR-5 = experiment: NCI DTP human tumor cell line screen (SRB); format: cell-based; conditions: Ovarian Cancer, 10 μM, 48 h
Method: as §1

786-0 = experiment: NCI DTP human tumor cell line screen (SRB); format: cell-based; conditions: Renal Cancer, 10 μM, 48 h
Method: as §1

MOLT-4 = experiment: NCI DTP human tumor cell line screen (SRB); format: cell-based; conditions: Leukemia, 10 μM, 48 h
Method: as §1

MCF7 = experiment: NCI DTP human tumor cell line screen (SRB); format: cell-based; conditions: Breast Cancer, 10 μM, 48 h
Method: as §1

NCI-H226 = experiment: NCI DTP human tumor cell line screen (SRB); format: cell-based; conditions: Non-Small Cell Lung Cancer, 10 μM, 48 h
Method: as §1

OVCAR-3 = experiment: NCI DTP human tumor cell line screen (SRB); format: cell-based; conditions: Ovarian Cancer, 10 μM, 48 h
Method: as §1

HCT-116 = experiment: NCI DTP human tumor cell line screen (SRB); format: cell-based; conditions: Colon Cancer, 10 μM, 48 h
Method: as §1

NCI-H23 = experiment: NCI DTP human tumor cell line screen (SRB); format: cell-based; conditions: Non-Small Cell Lung Cancer, 10 μM, 48 h
Method: as §1

SK-OV-3 = experiment: NCI DTP human tumor cell line screen (SRB); format: cell-based; conditions: Ovarian Cancer, 10 μM, 48 h
Method: as §1

BT-549 = experiment: NCI DTP human tumor cell line screen (SRB); format: cell-based; conditions: Breast Cancer, 10 μM, 48 h
Method: as §1

SK-MEL-2 = experiment: NCI DTP human tumor cell line screen (SRB); format: cell-based; conditions: Melanoma, 10 μM, 48 h
Method: as §1

HL-60(TB) = format: cell-based, human; conditions: Leukemia, 10 μM, 48 h
Method: The human tumor cell lines of the cancer screening panel were grown in RPMI 1640 medium containing 5% fetal bovine serum and 2 mM L-glutamine. For experimental screens, cells were inoculated into 96 well microtiter plates in 100 μL at plating densities ranging from 5,000 to 40,000 cells/well depending on the doubling time of individual cell lines. After cell inoculation, the microtiter plates were incubated at 37° C., 5% carbon dioxide, 95% air and 100% relative humidity for 24 hours prior to addition of the compounds.

[1] = system: approximately 60 human tumor cell lines; experiment: NCI DTP human tumor cell line screen, whole panel statistics; format: cell-based; conditions: for inhibitory activities against cancer cells: DTP human tumor cell line screen, non-small cell lung, colon, breast, ovarian, leukemia, renal, melanoma, prostate, CNS cancer; for mean growth percent: mean over all cell lines tested; for mean growth percent / delta value (growth percent) / range (growth percent): 10 μM, 48 h; for delta value (growth percent) / range (growth percent): over all cell lines tested
Method: as §1

Row | Compound | Growth Percent (T-47D) [%] | Growth Percent (U251) [%] | Growth Percent (CCRF-CEM) [%] | Growth Percent (K-562) [%] | Growth Percent (UACC-62) [%] | Growth Percent (MDA-MB-231/ATCC) [%] | Growth Percent (HOP-62) [%] | Growth Percent (SF-295) [%] | Growth Percent (SR) [%] | Growth Percent (NCI-H460) [%] | Growth Percent (ACHN) [%] | Growth Percent (SF-539) [%] | Growth Percent (COLO 205) [%] | Growth Percent (HS 578T) [%] | Growth Percent (CAKI-1) [%] | Growth Percent (UO-31) [%] | Growth Percent (A498) [%] | Growth Percent (LOX IMVI) [%] | Growth Percent (OVCAR-5) [%] | Growth Percent (786-0) [%] | further results
1 | CC1CCC2C(C)C(OCc3ccc(C(=O)NN=Cc4ccccc4O)o3)OC3OC4(C)CCC1C32OO4 (centres unmarked) [ART-Furan-Sal, N′-(2-hydroxybenzylidene)-5-(dihydroxyartemisinin-methyl)-furan-2-carbohydrazide] | 10.28 | 12.24 | −23.63 | 8.79 | −5.97 | 31.58 | 12.94 | 12.70 | −29.47 | −26.28 | 7.80 | −11.48 | 18.60 | 40.07 | 17.44 | −35.28 | 12.88 | 0.03 | 28.70 | −22.22 | Growth Percent (MOLT-4): −23.49%; Growth Percent (MCF7): 1.18%; Growth Percent (NCI-H226): 13.93%; Growth Percent (OVCAR-3): 30.23%; Growth Percent (HCT-116): 13.81%; Growth Percent (NCI-H23): 17.54%; Growth Percent (SK-OV-3): 14.53%; Growth Percent (BT-549): 22.47%; Growth Percent (SK-MEL-2): −27.21%; Growth Percent (HL-60(TB)): −43.79%; inhibitory activities against cancer cells [1]: inhibitory activities against several types of cancer cells; mean growth percent [1]: 6.1%; delta value (growth percent) [1]: 54.64; range (growth percent) [1]: 89.31; mean growth percent ([1]; summary text): 6.1%
2 | CC1CCC2C(C)C(OCc3ccc(C(=O)NN=Cc4ccccc4)cc3)OC3OC4(C)CCC1C32OO4 (centres unmarked) [ART-Phe-Bz, N′-(benzylidene)-4-(dihydroxyartemisinin-methyl)-phenyl carbohydrazide] | 11.51 | 36.35 | 6.71 | 7.86 | 24.51 | 26.78 | 52.14 | 14.30 | −24.04 | 32.58 | 16.91 | 25.70 | 17.72 | 34.12 | 5.53 | −21.11 | 30.47 | 8.89 | 28.19 | 26.79 | Growth Percent (MOLT-4): −25.73%; Growth Percent (MCF7): 11.63%; Growth Percent (NCI-H226): 29.10%; Growth Percent (OVCAR-3): 11.56%; Growth Percent (HCT-116): 5.59%; Growth Percent (NCI-H23): 30.10%; Growth Percent (SK-OV-3): 53.03%; Growth Percent (BT-549): 14.60%; Growth Percent (SK-MEL-2): −3.22%; Growth Percent (HL-60(TB)): −49.40%; mean growth percent [1]: 17.28%; delta value (growth percent) [1]: 66.68; range (growth percent) [1]: 102.60
3 | Cc1ncc(CO)c(C=NNC(=O)c2ccc(COC3OC4OC5(C)CCC6C(C)CCC(C3C)C46OO5)cc2)c1O (centres unmarked) [ART-Phe-Pyridoxal, N′-(5-hydroxy-3-hydroxymethyl-2-methyl-4-pyridylidene)-4-(dihydroxyartemisinin-methyl)-phenyl carbohydrazide] | −2.71 | 17.87 | 2.34 | 22.86 | −8.10 | 29.96 | 20.25 | 25.08 | −29.75 | −3.33 | 7.45 | −20.49 | −4.40 | −15.69 | −12.33 | 4.39 | −36.78 | 4.22 | 44.98 | −19.54 | Growth Percent (MOLT-4): −25.71%; Growth Percent (MCF7): 1.55%; Growth Percent (NCI-H226): 4.49%; Growth Percent (OVCAR-3): 19.87%; Growth Percent (HCT-116): 15.30%; Growth Percent (NCI-H23): 13.86%; Growth Percent (SK-OV-3): −4.66%; Growth Percent (BT-549): −18.57%; Growth Percent (SK-MEL-2): 20.14%; Growth Percent (HL-60(TB)): −4.98%; inhibitory activities against cancer cells [1]: inhibitory activities against several types of cancer cells; mean growth percent [1]: 7.85%; delta value (growth percent) [1]: 51.68; range (growth percent) [1]: 88.81; mean growth percent ([1]; summary text): 7.85%
4 | CC1CCC2C(C)C(OCc3ccc(C(=O)NN=Cc4ccccc4O)cc3)OC3OC4(C)CCC1C32OO4 (centres unmarked) [ART-Phe-Sal, N′-(2-hydroxybenzylidene)-4-(dihydroxyartemisinin-methyl)-phenyl carbohydrazide] | 34.12 | 17.18 | −19.45 | 8.87 | −17.63 | 47.38 | 12.31 | −2.87 | −44.93 | 0.59 | 10.40 | −18.69 | 26.59 | 29.71 | 11.04 | −17.67 | 0.33 | 1.55 | 49.55 | −12.09 | Growth Percent (MOLT-4): −30.65%; Growth Percent (MCF7): 12.70%; Growth Percent (NCI-H226): 10.80%; Growth Percent (OVCAR-3): 29.79%; Growth Percent (HCT-116): 13.24%; Growth Percent (NCI-H23): 31.01%; Growth Percent (SK-OV-3): 17.00%; Growth Percent (BT-549): 25.29%; Growth Percent (SK-MEL-2): −20.76%; Growth Percent (HL-60(TB)): −54.70%; inhibitory activities against cancer cells [1]: inhibitory activities against several types of cancer cells; mean growth percent [1]: 10.55%; delta value (growth percent) [1]: 67.26; range (growth percent) [1]: 112.98
